Holding throughout (format): binding
Assay [1] addresses CD16a (V Variant) (Homo sapiens, UniProt P08637, F176V). Description: FcγRIII (CD16a) SPR (Method A and/or Method B), V variant.
For assay [2], the target named is CD16a (F Variant) (Homo sapiens, UniProt P08637). Description: FcγRIII (CD16a) SPR (Method A and/or Method B), F variant.
For assay [3], the target named is T1, Fc-tagged human NKp46 (Homo sapiens, UniProt O76036).
T1 construct: purchased ACROBiosystems NC1-H5257
In words: NKp46 SPR assay (Method 1 and/or Method 2). The settings on record: SPR Method 1 and/or Method 2, Table 3B. The gist of the method: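 Method 1: biotinylated Avi-tag NKp46-Fc on streptavidin chip, peptides to 100-5000 nM top in PBS/0.05% Tween 20, 0.5% DMSO; 1:1 kinetic fit with mass transport. Method 2: NKp46-Fc captured by anti-Fc, PBS-P+ 2% DMSO; steady-state or kinetic 1:1 fit. Both 25° C, 50 μl/min, 60 s association.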
In general terms: SPR reads the build-up and loss of mass on a sensor chip optically.

Read-outs that look alike come from different tables or passages of the source. Numbered stars: 1 amine (or outer) side, 2 acyl side, 3 side chain; on linkers, the order of the positions; unused ones are H or OH. Bridge positions count the residues as written; N and C are the ends. Square brackets hold non-standard residues; d marks the D form. Peptide text beside a SMILES is read from it. TATA = O=C(CC[*:1])N1CN(C(=O)CC[*:2])CN(C(=O)CC[*:3])C1; X1 = C(c1nc(C[*:2])nc(C[*:3])n1)[*:1]; Cba = N[C@@H](CC1CCC1)C(=O)O; dNva = CCC[C@@H](N)C(=O)O; Nva = CCC[C@H](N)C(=O)O

T1 sequence (O76036 22-304): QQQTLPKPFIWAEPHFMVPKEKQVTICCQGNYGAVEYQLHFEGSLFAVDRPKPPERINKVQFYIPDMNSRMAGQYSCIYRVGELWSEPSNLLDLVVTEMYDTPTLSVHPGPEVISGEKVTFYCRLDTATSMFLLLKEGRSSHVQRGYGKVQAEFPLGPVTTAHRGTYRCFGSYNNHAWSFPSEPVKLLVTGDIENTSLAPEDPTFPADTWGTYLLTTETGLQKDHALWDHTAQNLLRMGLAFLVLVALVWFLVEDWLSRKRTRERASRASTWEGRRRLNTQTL
CD16a (V Variant), sequence (P08637 17-208 F176V): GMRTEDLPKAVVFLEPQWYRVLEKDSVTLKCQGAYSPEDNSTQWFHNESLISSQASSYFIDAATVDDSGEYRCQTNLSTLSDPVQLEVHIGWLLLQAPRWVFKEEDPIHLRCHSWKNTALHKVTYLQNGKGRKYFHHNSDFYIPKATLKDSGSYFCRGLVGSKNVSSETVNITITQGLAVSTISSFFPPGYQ

In the case of `C[C@H](N)C(=O)N[C@H]1CSCc2nc3nc(n2)CSC[C@H](NC(=O)[C@@H]2CCCN2C(=O)[C@H](CCC(=O)O)NC(=O)[C@H](CO)NC(=O)[C@H](Cc2ccccc2)NC(=O)[C@H](Cc2c[nH]cn2)NC(=O)[C@H](Cc2c[nH]c4ccccc24)NC(=O)[C@H](CCCNC(=N)N)NC1=O)C(=O)N[C@H](C)C(=O)N[C@@H](C)C(=O)N[C@@H](Cc1c[nH]c2ccccc12)C(=O)N[C@H](C(=O)N[C@@H](C)C(N)=O)CSC3` [BCY20392, A-(SEQ ID NO: 235)-A] (H-ACRWHFSEPC[dA]AWCA-NH2; linker 2-10-14 via X1; C-terminus assumed), in assay [1], the affinity, expressed as Kd, was 385 nM.
In assay [2], `C[C@H](N)C(=O)N[C@H]1CSCc2nc3nc(n2)CSC[C@H](NC(=O)[C@@H]2CCCN2C(=O)[C@H](CCC(=O)O)NC(=O)[C@H](CO)NC(=O)[C@@H]2CCN2C(=O)[C@H](Cc2c[nH]cn2)NC(=O)[C@H](Cc2c[nH]c4ccccc24)NC(=O)[C@H](CCCNC(=N)N)NC1=O)C(=O)NCC(=O)N[C@@H](C)C(=O)N[C@@H](Cc1c[nH]c2ccccc12)C(=O)N[C@H](C(=O)N[C@@H](C)C(N)=O)CSC3` [BCY20382, A-(SEQ ID NO: 227)-A] displayed a Kd of 385 nM.
`CC(C)C[C@@H]1NC(=O)[C@@H]2CCCN2C(=O)[C@H](Cc2c[nH]cn2)NC(=O)[C@@H]2CSCCC(=O)N3CN(CN(C3)C(=O)CCSC[C@H](NC(=O)[C@H](C)N)C(=O)N3CCC[C@H]3C(=O)N3CCC[C@H]3C(=O)N[C@@H]([C@@H](C)O)C(=O)N[C@@H](C(C)C)C(=O)N[C@@H](Cc3ccc(O)cc3)C(=O)N2)C(=O)CCSC[C@@H](C(=O)N[C@@H](C)C(=O)N(C)CC(=O)N(C)CC(=O)N(C)CC(=O)N(C)CC(=O)N(C)CC(=O)N(C)CC(=O)N[C@@H](CCCCNC(=O)CCCC[C@@H]2SC[C@@H]3NC(=O)N[C@@H]32)C(N)=O)NC(=O)[C@H](CC(=O)O)NC1=O` [BCY12621, A-(SEQ ID NO: 60)-A-[Sar6]-[KBiot]]: in assay [1] (SPR Method A and/or B, Table 6B, read-out: Kd (nM) (V Variant)), the Kd amounted to 1900 nM.
For `CC[C@H](C)[C@@H]1NC(=O)[C@@H](C)NC(=O)[C@H](Cc2c[nH]c3ccccc23)NC(=O)[C@H](CCC(N)=O)NC(=O)[C@@H]2CSCCC(=O)N3CN(CN(C3)C(=O)CCSC[C@@H](C(=O)N[C@@H](C)C(N)=O)NC1=O)C(=O)CCSC[C@H](NC(=O)[C@H](C)N)C(=O)N[C@@H](CC(=O)O)C(=O)N[C@@H](CC(C)C)C(=O)N[C@@H]([C@@H](C)O)C(=O)N[C@@H]([C@@H](C)O)C(=O)N[C@@H](Cc1c[nH]cn1)C(=O)N[C@@H](CC(N)=O)C(=O)N2` [BCY18292, A-(SEQ ID NO: 135)-A] (H-ACDLTTHNCQW[dA]ICA-NH2; linker 2-9-14 via TATA; N-terminus and C-terminus assumed), the Kd in assay [3] was 1460 nM.
`CSCC[C@@H]1NC(=O)[C@@H]2CSCCC(=O)N3CN(CN(C3)C(=O)CCSC[C@@H](C(=O)N[C@@H](C)C(N)=O)NC(=O)[C@H](C(C)C)NC(=O)[C@H](CCCCN)NC(=O)CNC(=O)[C@H]([C@@H](C)O)NC(=O)[C@H](Cc3ccc(O)cc3)NC1=O)C(=O)CCSC[C@H](NC(=O)[C@H](C)N)C(=O)N[C@@H](CC(N)=O)C(=O)N[C@@H](CC(C)C)C(=O)N[C@@H](CCC(N)=O)C(=O)N[C@@H](C)C(=O)N1CCC[C@H]1C(=O)N2` [BCY18318, A-(SEQ ID NO: 80)-A] (H-ACNLQAPCMYTGKVCA-NH2; linker 2-8-15 via TATA): the Kd in assay [3] was 1920 nM.
`CC(C)[C@@H]1NC(=O)[C@H](CO)NC(=O)[C@H](Cc2c[nH]c3ccccc23)NC(=O)[C@H](CCCNC(=N)N)NC(=O)[C@@H](NC(=O)[C@H](C)N)CSCc2nc3nc(n2)CSC[C@H](NC(=O)[C@@H]2CCCN2C(=O)[C@H](CC(=O)O)NC(=O)[C@H](CCC(=O)O)NC1=O)C(=O)N[C@H](C)C(=O)N[C@@H](C)C(=O)N[C@@H](Cc1c[nH]c2ccccc12)C(=O)N[C@H](C(=O)N[C@@H](C)C(N)=O)CSC3` [BCY14956, A-(SEQ ID NO: 178)-A] (H-ACRWSVEDPC[dA]AWCA-NH2; linker 2-10-14 via X1; N-terminus assumed) yielded a Kd in assay [1] of 2150 nM.
`CCC[C@@H]1NC(=O)[C@H](CCSC)NC(=O)[C@@H]2CSCCC(=O)N3CN(CN(C3)C(=O)CCSC[C@@H](C(=O)N[C@@H](C)C(N)=O)NC(=O)[C@H](C(C)C)NC(=O)[C@H](CCCCN)NC(=O)CNC(=O)[C@H]([C@@H](C)O)NC1=O)C(=O)CCSC[C@H](NC(=O)[C@H](C)N)C(=O)N[C@@H](CC(N)=O)C(=O)N[C@@H](CC(C)C)C(=O)N[C@@H](CCC(N)=O)C(=O)N[C@@H](C)C(=O)N1CCC[C@H]1C(=O)N2` [BCY19704, A-(SEQ ID NO: 95)-A] (H-ACNLQAPCM[Nva]TGKVCA-NH2; linker 2-8-15 via TATA; N-terminus assumed) displayed a Kd in assay [3] of 1620 nM.
Same read-out and setting: with `CSCC[C@@H]1NC(=O)[C@@H]2CSCCC(=O)N3CN(CN(C3)C(=O)CCSC[C@@H](C(=O)N[C@@H](C)C(N)=O)NC(=O)[C@@H]3CCCN3C(=O)[C@H](Cc3ccccc3)NC(=O)[C@H](CCCCN)NC1=O)C(=O)CCSC[C@H](NC(=O)[C@H](C)N)C(=O)N[C@@H](CC(N)=O)C(=O)N[C@@H](CC(C)C)C(=O)N[C@@H](CCC(N)=O)C(=O)N[C@@H](CC(N)=O)C(=O)N1CCC[C@H]1C(=O)N2` [BCY15102, A-(SEQ ID NO: 2)-A] (H-ACNLQNPCMKFPCA-NH2; linker 2-8-13 via TATA; C-terminus assumed) the figure was 1090 ± 99 nM; with `CSCC[C@@H]1NC(=O)[C@@H]2CSCCC(=O)N3CN(CN(C3)C(=O)CCSC[C@@H](C(=O)N[C@@H](C)C(N)=O)NC(=O)[C@H](C(C)C)NC(=O)[C@H](CCCCN)NC(=O)CNC(=O)[C@H]([C@@H](C)O)NC(=O)[C@H](CC(C)C)NC1=O)C(=O)CCSC[C@H](NC(=O)[C@H](C)N)C(=O)N[C@@H](CC(N)=O)C(=O)N[C@@H](CC(C)C)C(=O)N[C@@H](CCC(N)=O)C(=O)N[C@@H](C)C(=O)N[C@@H](C)C(=O)N2` [BCY18299, A-(SEQ ID NO: 64)-A] (H-ACNLQAACMLTGKVCA-NH2; linker 2-8-15 via TATA; N-terminus assumed), 1800 nM.
As for `CCC[C@H]1NC(=O)[C@@H]2CSCCC(=O)N3CN(CN(C3)C(=O)CCSC[C@H](NC(C)=O)C(=O)N[C@@H](Cc3ccc(O)cc3)C(=O)N[C@@H](CC3CCC3)C(=O)N3CCC[C@H]3C(=O)N[C@@H](CC(=O)O)C(=O)N[C@@H](Cc3ccc(O)cc3)C(=O)N[C@@H](CC(C)C)C(=O)N2)C(=O)CCSC[C@@H](C(N)=O)NC(=O)[C@H](Cc2ccc(O)cc2)NC(=O)[C@H](CCC(=O)O)NC(=O)[C@H](CC(=O)O)NC1=O` [BCY18444, Ac-(SEQ ID NO: 145)] (Ac-CY[Cba]PDYLC[dNva]DEYC-NH2; linker 1-8-13 via TATA), in assay [3], the Kd stood at 3.9 nM.
In assay [3], `CC[C@H](C)[C@@H]1NC(=O)CNC(=O)[C@H](Cc2c[nH]c3ccccc23)NC(=O)[C@H](CCC(N)=O)NC(=O)[C@@H]2CSCCC(=O)N3CN(CN(C3)C(=O)CCSC[C@@H](C(=O)N[C@@H](C)C(N)=O)NC1=O)C(=O)CCSC[C@H](NC(=O)[C@H](C)N)C(=O)N[C@@H](CC(=O)O)C(=O)N[C@@H](CC(C)C)C(=O)N[C@@H](C)C(=O)N[C@@H]([C@@H](C)O)C(=O)N[C@@H](Cc1c[nH]cn1)C(=O)N[C@@H](CC(N)=O)C(=O)N2` [BCY18265, A-(SEQ ID NO: 117)-A] (H-ACDLATHNCQWGICA-NH2; linker 2-9-14 via TATA; C-terminus assumed) yielded a Kd of 1480 nM.
On to `CC(C)C[C@@H]1NC(=O)[C@H](CC(N)=O)NC(=O)[C@@H](NC(=O)[C@H](C)N)CSCCC(=O)N2CN3CN(C2)C(=O)CCSC[C@H](NC(=O)[C@@H]2CCCN2C(=O)[C@H](C)NC(=O)[C@H](CCC(N)=O)NC1=O)C(=O)N[C@@H](CC(C)C)C(=O)N[C@@H](CC(C)C)C(=O)N[C@@H]([C@@H](C)O)C(=O)NCC(=O)N[C@@H](CCCCN)C(=O)N[C@@H](C(C)C)C(=O)N[C@H](C(=O)N[C@@H](C)C(N)=O)CSCCC3=O` [BCY18313, A-(SEQ ID NO: 75)-A] (H-ACNLQAPCLLTGKVCA-NH2; linker 2-8-15 via TATA; N-terminus assumed), for which, in assay [3], the dissociation constant (Kd) stood at 2750 nM.
Regarding `CSCC[C@@H]1NC(=O)[C@H](CCCCN)NC(=O)[C@@H]2CCCN2C(=O)[C@H](Cc2c[nH]cn2)NC(=O)[C@H]([C@@H](C)O)NC(=O)[C@H](CC(N)=O)NC(=O)[C@@H]2CCCN2C(=O)[C@@H]2CSCCC(=O)N3CN(CN(C3)C(=O)CCSC[C@@H](C(=O)N[C@@H](C)C(N)=O)NC1=O)C(=O)CCSC[C@H](NC(=O)[C@H](C)N)C(=O)N[C@@H](CC(C)C)C(=O)N[C@@H](CC(C)C)C(=O)N[C@@H](Cc1c[nH]cn1)C(=O)N[C@@H](CCC(=O)O)C(=O)N[C@@H](Cc1c[nH]cn1)C(=O)N2` [BCY15104, A-(SEQ ID NO: 6)-A] (H-ACLLHEHCPNTHPKMCA-NH2; linker 2-8-16 via TATA), in assay [3], the Kd came to 2880 nM.
In turn, `CSCC[C@@H]1NC(=O)[C@@H]2CSCCC(=O)N3CN(CN(C3)C(=O)CCSC[C@@H](C(=O)N[C@@H](C)C(N)=O)NC(=O)[C@H](C(C)C)NC(=O)[C@H](CCCCN)NC(=O)CNC(=O)[C@H]([C@@H](C)O)NC(=O)[C@H](Cc3c[nH]cn3)NC1=O)C(=O)CCSC[C@H](NC(=O)[C@H](C)N)C(=O)N[C@@H](CC(N)=O)C(=O)N[C@@H](CC(C)C)C(=O)N[C@@H](CCC(N)=O)C(=O)N[C@@H](C)C(=O)N1CCC[C@H]1C(=O)N2` [BCY19711, A-(SEQ ID NO: 100)-A] (H-ACNLQAPCMHTGKVCA-NH2; linker 2-8-15 via TATA; N-terminus assumed) yielded a Kd in assay [3] of 2750 nM.

A word on the Kd: it is the constant that tells how readily two partners part at equilibrium.

The record behind these values is patent US20240108738A1, “BICYCLIC PEPTIDE LIGANDS SPECIFIC FOR NK CELLS” (Bicycle Tx Limited, priority 2021, published 2024).
